This is an account of results in patent US5162354A, “3-halo-5-halomethyl-2-oxazolidinones and their use as microbicides” (Buckman Laboratories International, Inc., priority 1991, dated 1992).

Converted amounts (≈) assume the structure as drawn. Like-named read-outs stand apart in the source and are kept apart here.

Holding throughout (assay type): cell-based
One experiment concerns Staphylococcus aureus. In words: Efficacy of Sanitizers Recommended for Non-Food Contact Surfaces, ASTM E 1153-87 (Staphylococcus aureus). Conditions: 99.9% kill, read-out: Minimum inhibitory concentration required to inhibit microorganisms. The protocol: (§1) This test method is used to evaluate the antimicrobial efficacy of sanitizers on precleaned non-porous, non-food contact surfaces. This test was performed according to the test procedure E 1153-87 of ASTM. […] For most of the sanitizers, effectiveness is hampered (or minimum inhibitory concentrations go up) in the presence of an organic load. Therefore, the compounds of the present invention are tested both in the presence and absence of 5% organic load (Bovine albumin fraction V, Sigma Chemical Company).

A further experiment deals with Pseudomonas aeruginosa. In words: AOAC Disinfectant Swimming Pool Assay (Pseudomonas aeruginosa). The note with it: 10 min, contact time 10 minutes, read-out: MIC (Minimum inhibitory concentration required to inhibit microorganisms). The protocol:
(§2) This example was based on the procedure described in AOAC (Association of Official Analytical Chemists) Official Methods of Analysis (1986) pp 75-77. The results obtained by this method are suitable for presumptive evidence of acceptability of products for disinfecting swimming pool water. The results obtained for Compound 1 in a contact time of 10 minutes are noted in Table IV.

Another experiment deals with Salmonella choleraesuis. The experiment is described as follows: AOAC Disinfectant Swimming Pool Assay (Salmonella choleraesuis). Conditions: Salmonella enterica, 10 min, contact time 10 minutes, read-out: MIC (Minimum inhibitory concentration required to inhibit microorganisms). The protocol:
as §2

Another experiment concerns Chlorococcum hypnosporum. In words: Growth inhibiting activity against algae in Difco Algae Broth (Chlorococcum hypnosporum). The note with it: 672 h, pH 7, read-out: Minimum inhibitory concentration against algae. The protocol: (§3) The growth inhibiting activity of the method of the invention against the three algae Chlorella pyrenoidosa, Chlorococcum hypnosporum and Phormidium inundatum was evaluated in Difco Algae Broth, the content of which was as follows:
(§4) Forty-gram portions of the algae medium were added to 250 mL Pyrex Erlenmeyer flasks fitted with loose metal caps and then sterilized. Each of the following substances was then added to the flasks in the order listed:
(§5) 1. Sterile algae medium as required to bring the total weight of the contents of each flask to 50 grams, after allowing for all subsequent additions specified below.
(§6) 2. A solution of one of compounds 1-4 or of a control agent to be evaluated in each test, to give the concentration desired in parts per million by weight.
(§7) 3. Chlorella pyrenoidosa, Chlorococcum hypnosporum and Phormidium inundatum in amounts sufficient to give excellent growth in the controls after 14 days. This was achieved by adding 1 milliliter of a 14 day old culture having luxuriant growth. The Chlorella pyrenoidosa culture was obtained from American Type Culture Collection No. 7516; Chlorococcum hypnosporum, from the University of TX at Austin; and Phormidium inundatum, WI No. 1093, from the University of WA.
(§8) As a control experiment, WSCP was used as a positive control agent. WSCP is a known toxicant which kills C. pyrenoidosa at 2 ppm, C. hypnosporum at 2ppm, and P. inundatum at 10 ppm. Control experiments were also carried out where no toxicants were employed. In the algicidal tests, the growth of algae in the nutrient medium is lush green and can be seen with the naked eye. Because the minimum inhibitory concentrations of the compounds in this example are those which result in complete inhibition, evaluation of the test results is not subjective.
(§9) After the inoculum of the test algae was added, the flasks were incubated at a temperature of 28°±2° C. under fluorescent illumination of 250 foot-candle intensity (8 hours light, 16 hours darkness) for a period adequate for growth in the controls (those portions of medium which contained no toxicant). Observations of growth were made at 7-day intervals. Minimum inhibitory concentrations are those that prevented complete growth after 28 days.

Another experiment has as its system Phormidium inundatum. The experiment is described as follows: Growth inhibiting activity against algae in Difco Algae Broth (Phormidium inundatum). Conditions: 672 h, pH 7, read-out: Minimum inhibitory concentration against algae. The protocol:
as §3, §4, §5, §6, §7, §8, §9

For the next experiment, the system named is Enterobacter aerogenes. In words: Basal salts method, minimum inhibitory concentration against Enterobacter aerogenes. The note with it: Klebsiella aerogenes, at least 80% kill. The protocol:
Compounds 1-4 of Examples 3-6 of the present invention were tested by the basal salts method described in U.S. Pat. No. 2,881,070 at column 5, beginning at line 12 and extending to column 6, line 53. […] The minimum inhibitory concentrations are those in which a percentage kill of at least 80% is obtained.

In the next experiment the test system is Chlorella pyrenoidosa. The experiment is described as follows: Growth inhibiting activity against algae in Difco Algae Broth (Chlorella pyrenoidosa). Conditions: Auxenochlorella pyrenoidosa, 672 h, pH 7, read-out: Minimum inhibitory concentration against algae. The protocol: as §3, §4, §5, §6, §7, §8, §9
In experiment [1] the test system is Escherichia coli. The experiment is described as follows: AOAC Disinfectant Swimming Pool Assay (Escherichia coli). The note with it: 10 min, contact time 10 minutes, read-out: MIC (Minimum inhibitory concentration required to inhibit microorganisms). The protocol: as §2
Another experiment concerns Aspergillus niger. The experiment is described as follows: Growth inhibiting activity on the fungus Aspergillus niger. Conditions: Aspergillus niger pH 6.0; completely prevented growth; read-out: Minimum inhibitory concentration against fungi. The protocol:
The microorganism growth inhibiting activity of compounds 1-4 on the fungus Aspergillus niger was evaluated. The method is described in U.S. Pat. No. 4,945,109, column 5 beginning at line 47 to column 6, line 33. The disclosure of U.S. Pat. No. 4,945,109 is incorporated herein by reference.

In experiment [2] the test system is Streptococcus faecalis. The experiment is described as follows: AOAC Germicidal and Detergent Sanitizing Action of Disinfectants (Streptococcus faecalis). The protocol: This test is conducted according to AOAC methods described in AOAC Official Methods of Analysis (1984) p 70. This test is suitable for chemicals that can be permitted for use in sanitizing precleaned non-porous food contact surfaces. This test also determines the effectiveness of compounds tested in hard water. Most of the detergents/sanitizers available in the market become ineffective in the presence of hard water, i.e. water containing calcium and/or magnesium ions. A water hardness value of 400 ppm was chosen because it is considered to be the highest hardness value for tap water in the United States.

Experiment [3] has as its system Escherichia coli. The experiment is described as follows: Efficacy of Sanitizers Recommended for Non-Food Contact Surfaces, ASTM E 1153-87 (Escherichia coli). Conditions: 99.9% kill, read-out: Minimum inhibitory concentration required to inhibit microorganisms. The protocol:
as §1

A further experiment deals with Klebsiella pneumonia. In words: AOAC Disinfectant Swimming Pool Assay (Klebsiella pneumonia). Conditions: Klebsiella pneumoniae, 10 min, read-out: MIC (Minimum inhibitory concentration required to inhibit microorganisms). The protocol:
as §2

Experiment [4] deals with Streptococcus faecalis. In words: AOAC Disinfectant Swimming Pool Assay (Streptococcus faecalis). Conditions: Enterococcus faecalis, 10 min, contact time 10 minutes, read-out: MIC (Minimum inhibitory concentration required to inhibit microorganisms). The protocol: as §2
Where [5] appears, read: With 5% organic load (bovine albumin).

For `O=C1OC(CCl)CN1Br` (centres unmarked) [Compound 1, 3-Bromo-5-chloromethyl-2-oxazolidinone], the MIC in the experiment on Staphylococcus aureus (setting [5]) came out at 160 µg/mL (≈ 746 µM); in the experiment on Staphylococcus aureus (Without organic load) it was 80 µg/mL (≈ 373 µM); in the experiment with Pseudomonas aeruginosa, 100 µg/mL (≈ 466 µM); in the experiment on Salmonella choleraesuis it was 80 µg/mL (≈ 373 µM); in the experiment on Chlorococcum hypnosporum it was 10 µg/mL (≈ 46.6 µM); in the experiment with Phormidium inundatum, 2 µg/mL (≈ 9.33 µM). Moreover, the MIC with Enterobacter aerogenes (pH 6.0) is 10 µg/mL; in the experiment with Enterobacter aerogenes (pH 8.0) it was 10 µg/mL; in the experiment with Chlorella pyrenoidosa, 10 µg/mL (≈ 46.6 µM); in the experiment on Escherichia coli [1] it was 80 µg/mL (≈ 373 µM); with Aspergillus niger, 10 µg/mL (≈ 46.6 µM); in the experiment with Streptococcus faecalis [2] (Enterococcus faecalis, Soft Water, read-out: Minimum inhibitory concentration required to inhibit microorganisms), 80 µg/mL (≈ 373 µM). Moreover, the MIC with Escherichia coli [3] (setting [5]) turned out to be 160 µg/mL (≈ 746 µM); in the experiment on Escherichia coli [3] (Without organic load), 80 µg/mL (≈ 373 µM); in the experiment with Klebsiella pneumonia it was 100 µg/mL (≈ 466 µM); with Streptococcus faecalis [4], 80 µg/mL (≈ 373 µM). For the same compound, the “Minimum inhibitory concentration required to inhibit microorganisms” value in the experiment on Streptococcus faecalis [2] (Hard Water (400 ppm calcium carbonate)) is 80 parts per million (w/v).
